Experimental data published in US6939534B2, “Method to treat pulmonary hypoplasia in the newborn” (GenoMed, LLC, priority 2001, dated 2005).

How the values were obtained:
[1] = inhaled; cited from earlier work
[2] = Stability under acidification (pH 1-2) and heating (100° C. for 5 min); type: physicochemical; details: acidification to pH 1-2, heating to 100° C. for 5 min
Procedure: Since the EGF receptor can be activated by either EGF or transforming growth factor-α (TGF-α), and TGF-α is important in fetal development, and is also elaborated by the distal nephron, the EGF and TGF-α content of human amniotic fluid was measured, using specific radioimmunoassays and immunoprecipitation and immunoblotting. […] EGF, but not TGF-α, is stable under these conditions. […] In neonates, mature EGF (6 kD) is the predominant form in urine.
No significant concentration (<0.6 ng/ml) of TGF-α or EGF in human amniotic fluid was detectable directly by RIA or RRA.

[3] = animal models; cited from earlier work
type II pneumocytes = details: applied to type II pneumocytes in culture; cited from earlier work

Molecule | half-life [1] | stability [2] | toxicity [3] | production of surfactant (type II pneumocytes)
[N]=O [inhaled nitric oxide, nitric oxide] | very short |  |  | 
epidermal growth factor [EGF] |  | stable | no toxicity | stimulates production of surfactant
